Measurements taken from US6288277A, “Benzylamine and phenylethylamine derivatives, processes for preparing the same and their use as medicaments” (Boehringer Ingelheim Pharma KG, priority 1997, dated 2001).
Structures can show the parent of a compound that is named as a salt.

Target: LTB4-receptor (Homo sapiens, UniProt Q15722)
Experiment: Ki (LTB4-receptor; tests as described in WO 93/16036, pages 15 to 17)
Format: binding

Chain of LTB4-receptor (Q15722 whole entry): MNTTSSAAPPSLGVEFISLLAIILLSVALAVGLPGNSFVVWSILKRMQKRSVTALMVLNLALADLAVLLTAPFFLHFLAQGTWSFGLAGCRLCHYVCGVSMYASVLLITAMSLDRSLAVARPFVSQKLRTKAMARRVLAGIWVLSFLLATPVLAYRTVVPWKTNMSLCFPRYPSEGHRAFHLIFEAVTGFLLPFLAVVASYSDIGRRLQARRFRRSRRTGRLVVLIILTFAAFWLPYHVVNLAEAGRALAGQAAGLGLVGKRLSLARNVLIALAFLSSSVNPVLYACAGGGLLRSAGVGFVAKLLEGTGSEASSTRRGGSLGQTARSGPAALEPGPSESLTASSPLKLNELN

SMILES: NCc1ccc(OCc2cccc(COc3ccc(Cc4ccc(O)cc4)cc3)c2)cc1
- Ki: 38.6 nM

SMILES: CC(C)(c1ccccc1)c1ccc(OCc2cccc(COc3ccc(CN)cc3)c2)cc1
- Ki: 16.2 nM

SMILES: CC(C)(c1ccc(O)cc1F)c1ccc(OCc2cccc(COc3ccc(CN)cc3)c2)cc1F
- Ki: 10.6 nM

SMILES: CCOC(=O)C(C)(c1ccc(O)cc1)c1ccc(OCc2cccc(COc3ccc(CN)cc3)c2)cc1 (stereo not drawn)
- Ki: 2.85 nM

SMILES: NCc1ccc(OCc2cccc(COc3ccc(S(=O)(=O)c4ccc(O)cc4)cc3)c2)cc1
- Ki: 1.9 nM

SMILES: CC(C)(c1ccc(O)cc1)c1ccc(OCc2cccc(COc3ccc(CN)cc3)c2)cc1 [4-[[3-[[4-[1-(4-Hydroxyphenyl)-1-methylethyl]phenoxy]methyl]phenyl]methoxy]-benzylamine hydrochloride]
- Ki: 15.7 nM

SMILES: CC(C)(c1ccc(O)cc1)c1ccc(C(C)(C)c2ccc(OCc3cccc(COc4ccc(CN)cc4)c3)cc2)cc1
- Ki: 50.8 nM

SMILES: NCc1ccc(OCc2cccc(COc3ccc(Sc4ccc(O)cc4)cc3)c2)cc1
- Ki: 28.7 nM

SMILES: NCc1ccc(OCc2cccc(COc3ccc(C4(c5ccc(O)cc5)CCC4)cc3)c2)cc1
- Ki: 11.1 nM

SMILES: CC(C)(C)Oc1ccc(OCc2cccc(COc3ccc(CN)cc3)c2)cc1
- Ki: 7.5 nM

SMILES: CCOC(=O)NCC(C)(C)c1ccc(OCc2cccc(COc3ccc(CN)cc3)c2)cc1
- Ki: 4.5 nM

SMILES: CC(C)(c1ccc(O)cc1)c1ccc(OCc2cccc(COc3ccc(CN)cc3)c2)c(O)c1
- Ki: 2.4 nM

SMILES: CCOC(=O)NCc1ccc(OCc2cccc(COc3ccc(C(C)(C)c4ccc(O)cc4)cc3)c2)cc1
- Ki: 263 nM

SMILES: CC(C)(c1ccc(OCc2cccc(COc3ccc(CN)cc3)c2)cc1)c1ccc(O[C@@H]2O[C@H](CO)[C@@H](O)[C@H](O)[C@H]2O)cc1
- Ki: 0.55 nM

SMILES: Cc1cc(C(C)(C)c2ccc(OCc3cccc(COc4ccc(CN)cc4)c3)c(C)c2)ccc1O
- Ki: 32.5 nM

SMILES: CC(C)(c1ccccc1)c1ccc(OCc2cccc(COc3ccc(CN)cc3)c2)c(O)c1
- Ki: 17.6 nM

SMILES: NCc1ccc(OCc2cccc(COc3ccc([S+]([O-])c4ccc(O)cc4)cc3)c2)cc1 (stereo not drawn)
- Ki: 1.6 nM

SMILES: NCc1ccc(OCc2cccc(COc3ccc(Oc4ccc(O)cc4)cc3)c2)cc1
- Ki: 59.7 nM

SMILES: CC(C)(c1ccccc1)c1ccc(OCc2cccc(COc3ccc(CCN)cc3)c2)cc1 [2-[4-[[3-[[4-[1-phenyl-1-methylethyl]phenoxy]methyl]phenyl]methoxy]]-ethylamine hydrochloride]
- Ki: 30.6 nM

SMILES: CC(C)(CN)c1ccc(OCc2cccc(COc3ccc(CN)cc3)c2)cc1
- Ki: 67.3 nM

SMILES: NCc1ccc(OCc2cccc(COc3ccc(C(c4ccc(O)cc4)(C(F)(F)F)C(F)(F)F)cc3)c2)cc1
- Ki: 21.8 nM

SMILES: CC(C)(c1ccccc1)c1ccc(O)c(OCc2cccc(COc3ccc(CN)cc3)c2)c1
- Ki: 21.9 nM

SMILES: COC(=O)c1ccc(C(C)(C)c2ccc(OCc3cccc(COc4ccc(CN)cc4)c3)cc2)cc1
- Ki: 11.4 nM

SMILES: CC(CCC(=O)O)(c1ccc(O)cc1)c1ccc(OCc2cccc(COc3ccc(CN)cc3)c2)cc1 (stereo not drawn)
- Ki: 0.5 nM

SMILES: CCOC(=O)CCC(C)(c1ccc(O)cc1)c1ccc(OCc2cccc(COc3ccc(CN)cc3)c2)cc1 (stereo not drawn)
- Ki: 14.9 nM

SMILES: CC(c1ccc(O)cc1)c1ccc(OCc2cccc(COc3ccc(CN)cc3)c2)cc1 (stereo not drawn)
- Ki: 21.5 nM

SMILES: CC(C)(c1ccc(O)cc1)c1ccc(OCc2cccc(COc3ccc(CN)cc3)c2F)cc1
- Ki: 27.9 nM

SMILES: CC(C)(c1ccc(OCc2cccc(COc3ccc(CN)cc3)c2)cc1)c1ccc(C(=O)N2CCCCC2)cc1
- Ki: 0.86 nM

SMILES: CC(C)N(C(=O)c1ccc(C(C)(C)c2ccc(OCc3cccc(COc4ccc(CN)cc4)c3)cc2)cc1)C(C)C
- Ki: 13.1 nM

SMILES: NCc1ccc(OCc2cccc(COc3cccc(C(=O)c4ccccc4)c3)c2)cc1
- Ki: 13.8 nM
